Data published in US12448389B2, “BRM targeting compounds and associated methods of use” (Prelude Therapeutics Incorporated, priority 2020, dated 2025).

Key:
[1] = target: T1, SMARCA2-HiBiT (Homo sapiens, UniProt P51531); assay: SMARCA2 HiBiT degradation assay in HeLa cells; format: cell-based; conditions: 18 hours incubation; for DC50: read-out: HeLa_HiBit-SM2 DC50; for Dmax: HeLa, read-out: HeLa-HiBit-SM2 Dmax (%)
T1 construct: SMARCA2-HiBiT knock-in Hela monoclonal cell (CS302366); host or cells: HeLa monoclonal knock-in line (CRISPR HiBiT knock-in at the endogenous locus, heterozygous)
T1 sequence (P51531 whole entry): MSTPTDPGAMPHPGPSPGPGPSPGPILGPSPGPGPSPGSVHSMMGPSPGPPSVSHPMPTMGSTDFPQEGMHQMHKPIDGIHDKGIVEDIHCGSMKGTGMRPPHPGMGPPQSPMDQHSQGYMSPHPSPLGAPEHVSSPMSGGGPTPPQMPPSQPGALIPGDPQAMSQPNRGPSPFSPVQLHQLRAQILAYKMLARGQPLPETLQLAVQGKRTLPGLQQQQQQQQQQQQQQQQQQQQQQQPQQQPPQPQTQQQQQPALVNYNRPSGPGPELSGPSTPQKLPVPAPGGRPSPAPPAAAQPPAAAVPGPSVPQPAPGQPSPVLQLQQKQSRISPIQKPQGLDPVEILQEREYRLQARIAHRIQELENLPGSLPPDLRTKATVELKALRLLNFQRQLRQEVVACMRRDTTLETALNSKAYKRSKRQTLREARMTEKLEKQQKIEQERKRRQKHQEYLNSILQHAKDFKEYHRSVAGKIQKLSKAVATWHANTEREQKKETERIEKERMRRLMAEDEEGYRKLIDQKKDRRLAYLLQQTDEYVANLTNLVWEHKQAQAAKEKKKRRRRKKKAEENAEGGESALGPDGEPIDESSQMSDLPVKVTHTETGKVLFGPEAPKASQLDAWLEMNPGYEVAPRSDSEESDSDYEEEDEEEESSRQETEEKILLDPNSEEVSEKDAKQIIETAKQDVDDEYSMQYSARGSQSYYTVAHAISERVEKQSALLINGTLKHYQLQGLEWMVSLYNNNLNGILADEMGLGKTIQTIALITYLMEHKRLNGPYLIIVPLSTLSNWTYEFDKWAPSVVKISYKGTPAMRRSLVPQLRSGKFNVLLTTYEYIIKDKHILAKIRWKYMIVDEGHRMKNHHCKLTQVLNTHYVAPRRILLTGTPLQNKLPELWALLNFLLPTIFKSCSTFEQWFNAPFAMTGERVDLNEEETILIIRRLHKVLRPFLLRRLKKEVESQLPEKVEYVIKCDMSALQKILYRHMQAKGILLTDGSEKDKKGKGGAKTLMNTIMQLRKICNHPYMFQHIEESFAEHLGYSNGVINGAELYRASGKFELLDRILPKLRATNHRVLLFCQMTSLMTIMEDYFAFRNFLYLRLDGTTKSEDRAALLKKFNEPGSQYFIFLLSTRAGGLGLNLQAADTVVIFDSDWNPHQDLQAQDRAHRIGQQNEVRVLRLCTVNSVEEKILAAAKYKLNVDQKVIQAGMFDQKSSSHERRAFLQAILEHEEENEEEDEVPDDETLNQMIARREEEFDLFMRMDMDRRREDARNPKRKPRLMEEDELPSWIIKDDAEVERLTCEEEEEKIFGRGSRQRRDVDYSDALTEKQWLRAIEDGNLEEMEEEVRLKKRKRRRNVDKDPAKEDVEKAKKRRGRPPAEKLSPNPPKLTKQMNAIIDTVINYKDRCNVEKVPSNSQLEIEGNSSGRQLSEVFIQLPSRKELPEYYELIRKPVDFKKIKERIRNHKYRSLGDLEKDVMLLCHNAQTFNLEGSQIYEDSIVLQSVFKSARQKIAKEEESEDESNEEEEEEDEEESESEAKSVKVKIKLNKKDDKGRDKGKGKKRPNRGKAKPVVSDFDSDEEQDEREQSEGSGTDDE
How it was run: (§1)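 HeLa monoclonal lines with heterozygous HiBiT knock-in were seeded at 2500 cells/well in EMEM with 10% FBS and treated with compound for 18 h at 37 °C. Remaining tagged protein was measured by Nano-Glo HiBiT lytic luminescence after 30–60 min at RT, and values came from curve fitting.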

[2] = target: T2, SMARCA4-HiBiT (Homo sapiens, UniProt P51532); assay: SMARCA4 HiBiT degradation assay in HeLa cells; format: cell-based; conditions: 18 hours incubation; for DC50: read-out: HeLa-HiBit-SM4 DC50; for Dmax: HeLa, read-out: HeLa-HiBit-SM4 Dmax (%)
T2 construct: SMARCA4-HiBiT knock-in Hela monoclonal cell (CS3023226); host or cells: HeLa monoclonal knock-in line (CRISPR HiBiT knock-in at the endogenous locus, heterozygous)
T2 sequence (P51532 whole entry): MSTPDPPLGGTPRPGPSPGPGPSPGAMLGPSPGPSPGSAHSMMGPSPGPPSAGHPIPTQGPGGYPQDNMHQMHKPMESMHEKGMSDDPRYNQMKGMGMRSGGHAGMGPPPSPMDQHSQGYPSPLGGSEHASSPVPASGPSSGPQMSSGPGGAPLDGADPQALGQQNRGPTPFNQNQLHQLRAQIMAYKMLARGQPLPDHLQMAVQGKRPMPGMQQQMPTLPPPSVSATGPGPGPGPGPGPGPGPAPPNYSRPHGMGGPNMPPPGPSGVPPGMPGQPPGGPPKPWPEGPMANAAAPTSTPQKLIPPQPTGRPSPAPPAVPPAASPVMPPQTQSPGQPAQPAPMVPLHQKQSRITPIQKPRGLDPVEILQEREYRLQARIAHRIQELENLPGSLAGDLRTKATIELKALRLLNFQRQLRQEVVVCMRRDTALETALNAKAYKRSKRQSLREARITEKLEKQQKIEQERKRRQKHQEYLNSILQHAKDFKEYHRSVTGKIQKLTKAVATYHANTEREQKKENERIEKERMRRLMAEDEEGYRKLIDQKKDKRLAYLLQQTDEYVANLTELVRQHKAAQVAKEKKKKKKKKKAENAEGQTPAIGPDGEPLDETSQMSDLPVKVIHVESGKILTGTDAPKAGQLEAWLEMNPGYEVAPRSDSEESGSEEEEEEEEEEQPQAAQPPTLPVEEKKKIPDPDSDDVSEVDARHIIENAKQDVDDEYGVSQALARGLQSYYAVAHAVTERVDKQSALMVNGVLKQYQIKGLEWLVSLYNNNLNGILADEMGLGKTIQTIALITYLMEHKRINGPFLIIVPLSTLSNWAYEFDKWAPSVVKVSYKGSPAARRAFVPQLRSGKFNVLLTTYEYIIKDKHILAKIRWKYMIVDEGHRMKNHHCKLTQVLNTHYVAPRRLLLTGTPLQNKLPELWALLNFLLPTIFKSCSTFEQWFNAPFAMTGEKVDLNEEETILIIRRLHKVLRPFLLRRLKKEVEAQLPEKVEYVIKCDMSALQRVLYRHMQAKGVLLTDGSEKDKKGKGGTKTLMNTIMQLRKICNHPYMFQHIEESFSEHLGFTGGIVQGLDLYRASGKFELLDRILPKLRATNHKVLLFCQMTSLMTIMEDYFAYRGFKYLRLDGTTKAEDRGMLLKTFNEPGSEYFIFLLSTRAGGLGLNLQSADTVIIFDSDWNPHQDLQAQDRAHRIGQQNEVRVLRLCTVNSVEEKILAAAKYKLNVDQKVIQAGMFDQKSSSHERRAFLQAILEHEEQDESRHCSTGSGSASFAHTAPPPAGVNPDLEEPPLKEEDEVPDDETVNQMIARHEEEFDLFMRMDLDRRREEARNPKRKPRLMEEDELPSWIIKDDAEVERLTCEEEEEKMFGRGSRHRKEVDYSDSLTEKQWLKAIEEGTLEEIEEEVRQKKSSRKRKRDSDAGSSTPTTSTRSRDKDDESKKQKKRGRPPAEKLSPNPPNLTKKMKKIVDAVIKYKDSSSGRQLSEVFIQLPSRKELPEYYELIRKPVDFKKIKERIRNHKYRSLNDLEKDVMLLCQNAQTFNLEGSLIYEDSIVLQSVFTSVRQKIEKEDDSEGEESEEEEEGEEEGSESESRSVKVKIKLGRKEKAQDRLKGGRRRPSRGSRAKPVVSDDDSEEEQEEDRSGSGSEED
How it was run: as §1

Row | Structure (SMILES) | DC50 [1] [nM] | Dmax [1] [%] | DC50 [2] [nM] | Dmax [2] [%]
1 | O=C1CCC(N2C(=O)c3ccc(N4CC(CN5CCC(CN6CCN7c8cc(-c9ccccc9O)nnc8NC[C@H]7C6)CC5)C(F)(F)C4)cc3C2=O)C(=O)N1 (stereo partly drawn) [Example 191, 5-[3,3-difluoro-4-[[4-[[(10S)-4-(2-hydroxyphenyl)-1,5,6,8,12-pentazatricyclo[8.4.0.02,7]tetradeca-2(7),3,5-trien-12-yl]methyl]piperidin-1-yl]methyl]pyrrolidin-1-yl]-2-(2,6-dioxopiperidin-3-yl)isoindole-1,3-dione] | < 10 | 50 to 75 | 10 to 100 | 75 to 85
2 | CC1CN(CC2CCN(C(=O)N3CCN4c5cc(-c6ccccc6O)nnc5NC[C@H]4C3)CC2)CCN1c1ccc2c(c1)C(=O)N(C1CCC(=O)NC1=O)C2=O (stereo partly drawn) [Example 272, 2-(2,6-dioxopiperidin-3-yl)-5-(4-((1-((S)-2-(2-hydroxyphenyl)-6,6a,7,8,9,10-hexahydro-5H-pyrazino[1′,2′:4,5]pyrazino[2,3-c]pyridazine-8-carbonyl)piperidin-4-yl)methyl)-2-methylpiperazin-1-yl)isoindoline-1,3-dione] | < 10 | > 85 | 10 to 100 | 75 to 85
3 | O=C1CCC(N2Cc3ccc(N4CCC(CN5CCN(C(=O)N6CCN7c8cc(-c9ccccc9O)nnc8NC[C@H]7C6)C6(CC6)C5)CC4)cc3C2=O)C(=O)N1 (stereo partly drawn) [Example 262, 3-(6-(4-((4-((S)-2-(2-hydroxyphenyl)-6,6a,7,8,9,10-hexahydro-5H-pyrazino[1′,2′:4,5]pyrazino[2,3-c]pyridazine-8-carbonyl)-4,7-diazaspiro[2.5]octan-7-yl)methyl)piperidin-1-yl)-1-oxoisoindolin-2-yl)piperidine-2,6-dione] | < 10 | > 85 | < 10 | > 85
4 | O=C1CCC(N2Cc3cc(C4CCN(C5CCN(CCN6CCN7c8cc(-c9ccccc9O)nnc8NC[C@H]7C6)CC5)CC4)ccc3C2=O)C(=O)N1 (stereo partly drawn) [Example 212, 3-(5-(1′-(2-((S)-2-(2-hydroxyphenyl)-5,6,6a,7,9,10-hexahydro-8H-pyrazino[1′,2′:4,5]pyrazino[2,3-c]pyridazin-8-yl)ethyl)-[1,4′-bipiperidin]-4-yl)-1-oxoisoindolin-2-yl)piperidine-2,6-dione] | < 10 | > 85 | < 10 | > 85
5 | O=C1CCC(N2C(=O)c3cccc(N4CCC(N5CCC(N6CCN7c8cc(-c9ccccc9O)nnc8NC[C@H]7C6)CC5)CC4)c3C2=O)C(=O)N1 (stereo partly drawn) [Example 66, 2-(2,6-dioxopiperidin-3-yl)-4-(4-((S)-2-(2-hydroxyphenyl)-5,6,6a,7,9,10-hexahydro-8H-pyrazino[1′,2′:4,5]pyrazino[2,3-c]pyridazin-8-yl)-[1,4′-bipiperidin]-1′-yl) isoindoline-1,3-dione] | < 10 | > 85 | < 10 | > 85
6 | C[C@H]1CN2c3cc(-c4ccccc4O)nnc3NC[C@H]2CN1C[C@H]1[C@@H]2CN(C[C@H]3CCN(c4ccc5c(c4)C(=O)N(C4CCC(=O)NC4=O)C5)C[C@@H]3F)C[C@@H]21 (stereo partly drawn) [Example 204, 3-[5-[(3R,4R)-3-fluoro-4-[[(1S,5R)-6-[[(10S,13S)-4-(2-hydroxyphenyl)-13-methyl-1,5,6,8,12-pentazatricyclo[8.4.0.02,7]tetradeca-2,4,6-trien-12-yl]methyl]-3-azabicyclo[3.1.0]hexan-3-yl]methyl]piperidin-1-yl]-3-oxo-1H-isoindol-2-yl]piperidine-2,6-dione] | < 10 | 75 to 85 | 10 to 100 | 75 to 85
7 | O=C1CCC(N2Cc3ccc(N4CC[C@H](CN5C[C@@H]6[C@H](C5)[C@H]6CN5CCN6c7cc(-c8ccccc8O)nnc7NC[C@H]6C5)[C@@H](F)C4)cc3C2=O)C(=O)N1 (stereo partly drawn) [Example 203, 3-(6-((3R,4R)-3-fluoro-4-(((1R,5S,6R)-6-(((S)-2-(2-hydroxyphenyl)-5,6,6a,7,9,10-hexahydro-8H-pyrazino[1′,2′:4,5]pyrazino[2,3-c]pyridazin-8-yl)methyl)-3-azabicyclo[3.1.0]hexan-3-yl)methyl)piperidin-1-yl)-1-oxoisoindolin-2-yl)piperidine-2,6-dione] | < 10 | > 85 | < 10 | > 85
8 | O=C1CCC(N2C(=O)c3ccc(N4CCN(CCN5CCC(N6CCN7c8cc(-c9ccccc9O)nnc8NC[C@H]7C6)CC5)CC4)cc3C2=O)C(=O)N1 (stereo partly drawn) [Example 155, 2-(2,6-dioxopiperidin-3-yl)-5-(4-(2-(4-((S)-2-(2-hydroxyphenyl)-5,6,6a,7,9,10-hexahydro-8H-pyrazino[1′,2′:4,5]pyrazino[2,3-c]pyridazin-8-yl)piperidin-1-yl)ethyl)piperazin-1-yl)isoindoline-1,3-dione] | < 10 | > 85 | < 10 | > 85
9 | C[C@@H]1C[C@H](CN2CCC(CN3CCN4c5cc(-c6ccccc6O)nnc5NC[C@H]4C3)CC2)CCN1c1ccc2c(c1)C(=O)N(C1CCC(=O)NC1=O)C2=O (stereo partly drawn) [Example 184, 2-(2,6-dioxopiperidin-3-yl)-5-[(2R,4R)-4-[[4-[[(10S)-4-(2-hydroxyphenyl)-1,5,6,8,12-pentazatricyclo[8.4.0.02,7]tetradeca-2,4,6-trien-12-yl]methyl]piperidin-1-yl]methyl]-2-methylpiperidin-1-yl]isoindole-1,3-dione] | < 10 | > 85 | < 10 | > 85
10 | O=C1CCC(N2C(=O)c3ccc(N4CCC(CN5CC6CC5CC6CN5CCN6c7cc(-c8ccccc8O)nnc7NC[C@H]6C5)CC4)cc3C2=O)C(=O)N1 (stereo partly drawn) [Example 136, 2-(2,6-dioxopiperidin-3-yl)-5-(4-((5-(((S)-2-(2-hydroxyphenyl)-5,6,6a,7,9,10-hexahydro-8H-pyrazino[1′,2′:4,5]pyrazino[2,3-c]pyridazin-8-yl)methyl)-2-azabicyclo[2.2.1]heptan-2-yl)methyl)piperidin-1-yl) isoindoline-1,3-dione] | < 10 | > 85 | < 10 | > 85
11 | C[C@@H]1CN(CC2CCN(c3ccc4c(c3)C(=O)N(C3CCC(=O)NC3=O)C4)CC2)CCN1C(=O)N1CCN2c3cc(-c4ccccc4O)nnc3NC[C@H]2C1 (stereo partly drawn) [Example 114, 3-(6-(4-(((R)-4-((S)-2-(2-hydroxyphenyl)-6,6a,7,8,9,10-hexahydro-5H-pyrazino[1′,2′:4,5]pyrazino[2,3-c]pyridazine-8-carbonyl)-3-methylpiperazin-1-yl)methyl)piperidin-1-yl)-1-oxoisoindolin-2-yl)piperidine-2,6-dione] | < 10 | > 85 | < 10 | 75 to 85
12 | O=C1CCC(N2Cc3cc(C4CCN(C5CCN(CCCN6CCN7c8cc(-c9ccccc9O)nnc8NC[C@H]7C6)CC5)CC4)ccc3C2=O)C(=O)N1 (stereo partly drawn) [Example 209, 3-(5-(1′-(3-((S)-2-(2-hydroxyphenyl)-5,6,6a,7,9,10-hexahydro-8H-pyrazino[1′,2′:4,5]pyrazino[2,3-c]pyridazin-8-yl)propyl)-[1,4′-bipiperidin]-4-yl)-1-oxoisoindolin-2-yl)piperidine-2,6-dione] | < 10 | > 85 | < 10 | > 85
13 | O=C1CCC(N2C(=O)c3ccc(N4CCC(F)(F)C(CN5C[C@@H]6[C@H](C5)[C@H]6CN5CCN6c7cc(-c8ccccc8O)nnc7NC[C@H]6C5)C4)cc3C2=O)C(=O)N1 (stereo partly drawn) [Example 55, 5-(4,4-difluoro-3-(((1R,5S,6r)-6-(((S)-2-(2-hydroxyphenyl)-5,6,6a,7,9,10-hexahydro-8H-pyrazino[1′,2′:4,5]pyrazino[2,3-c]pyridazin-8-yl)methyl)-3-azabicyclo[3.1.0]hexan-3-yl)methyl)piperidin-1-yl)-2-(2,6-dioxopiperidin-3-yl)isoindoline-1,3-dione] | 10 to 100 | 50 to 75 | 10 to 100 | 75 to 85
14 | O=C1CCC(N2Cc3ccc(N4CCC(CN5CCN(C(=O)N6CCN7c8cc(-c9cc(F)ccc9O)nnc8NC[C@H]7C6)CC5)CC4)cc3C2=O)C(=O)N1 (stereo partly drawn) [Example 282, 3-(6-(4-((4-((S)-2-(5-fluoro-2-hydroxyphenyl)-6,6a,7,8,9,10-hexahydro-5H-pyrazino[1′,2′:4,5]pyrazino[2,3-c]pyridazine-8-carbonyl)piperazin-1-yl)methyl)piperidin-1-yl)-1-oxoisoindolin-2-yl)piperidine-2,6-dione] | < 10 | > 85 | < 10 | 75 to 85
15 | CN(C(=O)N1CCN2c3cc(-c4ccccc4O)nnc3NC[C@H]2C1)C1CCN(CC2CCN(c3ccc4c(c3)CN(C3CCC(=O)NC3=O)C4=O)CC2)CC1 (stereo partly drawn) [Example 139, (6aS)-N-(1-((1-(2-(2,6-dioxopiperidin-3-yl)-1-oxoisoindolin-5-yl)piperidin-4-yl)methyl)piperidin-4-yl)-2-(2-hydroxyphenyl)-N-methyl-5,6,6a,7,9,10-hexahydro-8H-pyrazino[1′,2′:4,5]pyrazino[2,3-c]pyridazine-8-carboxamide] | < 10 | > 85 | < 10 | > 85
